Experiments:
M4 mAChR = target: T1, M4 mAChR (Homo sapiens, UniProt P08173); experiment: cAMP TR-FRET assay with forskolin, M4-overexpressing CHO-K1 cells; format: cell-based
T1 construct: expressed in transfected cells; host or cells: CHO-K1
T1 sequence (P08173 1-479): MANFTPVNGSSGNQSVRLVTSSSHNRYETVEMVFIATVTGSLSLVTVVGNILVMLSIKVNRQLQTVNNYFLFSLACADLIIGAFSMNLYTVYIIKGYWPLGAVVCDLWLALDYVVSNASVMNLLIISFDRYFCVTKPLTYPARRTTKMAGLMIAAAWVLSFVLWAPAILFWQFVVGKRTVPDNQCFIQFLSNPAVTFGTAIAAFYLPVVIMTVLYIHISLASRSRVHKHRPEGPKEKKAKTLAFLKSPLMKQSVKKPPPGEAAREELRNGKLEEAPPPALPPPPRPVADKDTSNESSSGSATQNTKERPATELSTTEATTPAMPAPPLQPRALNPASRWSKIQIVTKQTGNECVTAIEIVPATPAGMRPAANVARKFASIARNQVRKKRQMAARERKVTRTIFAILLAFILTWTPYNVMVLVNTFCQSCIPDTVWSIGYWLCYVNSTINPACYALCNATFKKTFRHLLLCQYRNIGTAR
Summary of the method: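 CHO-K1 cells overexpressing the receptor were stimulated with forskolin to raise cAMP, so that Gi-mediated agonist decreases could be measured. cAMP was quantified by TR-FRET competition between cellular cAMP and labelled donor for anti-cAMP antibody, giving potency and efficacy.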

[1] = target: T2, M3 muscarinic acetylcholine receptor (mAChR) (Homo sapiens, UniProt P20309); experiment: FLIPR calcium assay (Fluo 8), M3-overexpressing CHO-K1 cells; format: cell-based
T2 construct: expressed in transfected cells; host or cells: CHO-K1
Summary of the method: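 CHO-K1 cells overexpressing each human receptor seeded at 15,000 per well, grown overnight at 37° C., 5% CO2, then loaded with Fluo-8 for 30 min. Compounds in HBSS added and calcium response read on FLIPR; EC50 and Emax calculated per subtype.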

T2 sequence (P20309 whole entry): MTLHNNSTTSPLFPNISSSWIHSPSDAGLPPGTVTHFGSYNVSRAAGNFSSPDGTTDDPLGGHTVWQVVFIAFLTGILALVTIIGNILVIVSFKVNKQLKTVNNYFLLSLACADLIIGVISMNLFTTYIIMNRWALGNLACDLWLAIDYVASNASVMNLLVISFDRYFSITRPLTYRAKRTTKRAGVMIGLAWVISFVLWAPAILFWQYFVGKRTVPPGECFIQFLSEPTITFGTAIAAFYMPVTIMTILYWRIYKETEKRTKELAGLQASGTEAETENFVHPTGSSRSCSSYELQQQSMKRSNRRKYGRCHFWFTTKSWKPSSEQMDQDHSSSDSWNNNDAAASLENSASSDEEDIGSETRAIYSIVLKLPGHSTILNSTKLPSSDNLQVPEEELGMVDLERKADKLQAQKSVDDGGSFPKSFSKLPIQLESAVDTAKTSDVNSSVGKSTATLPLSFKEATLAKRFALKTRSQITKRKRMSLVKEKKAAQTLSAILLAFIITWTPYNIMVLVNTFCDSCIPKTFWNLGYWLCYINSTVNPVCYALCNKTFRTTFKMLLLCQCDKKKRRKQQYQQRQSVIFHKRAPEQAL

Row | Structure (SMILES) | Emax (M4 mAChR; cAMP assay) | EC50 ([1]; FLIPR) | Emax (M4 mAChR; cAMP TR-FRET with forskolin) | EC50 ([1]; FLIPR calcium)
1 | CCOC(=O)N1CC2(CC[C@@H](N3CCN(c4cc(F)cnc4NC4CC5(COC5)C4)CC3)C2)C1 [Compound A288] | 19 to 49.9% | > 10 µM |  | 
2 | CCOC(=O)N1CC2(CC[C@@H](N3CCN(c4cc(F)cnc4-c4ccc(O)c(OC)c4)CC3)C2)C1 [Compound A40] |  |  | 80 to 100% | > 10 µM
3 | CCOC(=O)N1CC2(CC[C@@H](N3CCN(c4cc(F)cnc4-c4cccc5cnn(C)c45)CC3)C2)C1 [Compound A65] |  |  | 50 to 79.9% | > 10 µM
4 | CCOC(=O)N1CC2(CC[C@@H](N3CCN(c4cc(F)cnc4-n4cc(C)nn4)CC3)C2)C1 [Compound A246] | 80 to 100% | > 10 µM |  | 
5 | CCOC(=O)N1CC2(CC[C@@H](N3CCN(c4cc(F)cnc4-c4cnn5c4CCCC5)CC3)C2)C1 [Compound A160] | 80 to 100% | > 10 µM |  | 
6 | CCOC(=O)N1CC2(CC[C@@H](N3CCN(c4cc(F)cnc4-c4ccnc(F)c4)CC3)C2)C1 [Compound A55] |  |  | 80 to 100% | > 10 µM
7 | CCOC(=O)N1CC2(CC[C@@H](N3CCN(c4cc(F)cnc4-c4cnn(CC(F)F)c4)CC3)C2)C1 [Compound A172] | 80 to 100% | > 10 µM |  | 
8 | CCOC(=O)N1CC2(CC[C@@H](N3CCN(c4cc(F)cnc4-c4cnn(C(C)(C)C)c4)CC3)C2)C1 [Compound A191] | 50 to 79.9% | > 10 µM |  | 
9 | CCOC(=O)N1CC2(CC[C@@H](N3CCN(c4cc(F)cnc4-c4ccc(C)c(CO)c4)CC3)C2)C1 [Compound A150] | 50 to 79.9% | > 10 µM |  | 
10 | CCOC(=O)N1CC2(CC[C@@H](N3CCN(c4cc(F)cnc4-c4ccc(OC)c(F)c4)CC3)C2)C1 [Compound A112] |  |  | 80 to 100% | > 10 µM
11 | CCOC(=O)N1CC2(CC[C@@H](N3CCN(c4cc(F)cnc4-c4cc(O)ncc4F)CC3)C2)C1 [Compound A175] | 80 to 100% | > 10 µM |  | 
12 | CCOC(=O)N1CC2(CC[C@@H](N3CCN(c4cc(F)cnc4-c4cccc(C#N)c4)CC3)C2)C1 [Compound A39] |  |  | 80 to 100% | > 10 µM
13 | [2H]C([2H])([2H])n1cc(-c2ncc(F)cc2N2CCN([C@@H]3CCC4(C3)CN(C(=O)OCC)C4)CC2)cn1 [Compound A187] | 80 to 100% | > 10 µM |  | 
14 | CCOC(=O)N1CC2(CC[C@@H](N3CCN(c4cc(Cl)cnc4-c4ccn(C)c(=O)c4)CC3)C2)C1 [Compound A209] | 80 to 100% | > 10 µM |  | 
15 | CCOC(=O)N1CC2(CC[C@@H](N3CCN(c4cc(F)cnc4-c4ccc(CO)c(C)c4)CC3)C2)C1 [Compound A134] |  |  | 80 to 100% | > 10 µM
16 | CCOC(=O)N1CC2(CC[C@@H](N3CCN(c4cc(F)cnc4-c4ccnc(OC)c4)CC3)C2)C1 [Compound A110] |  |  | 80 to 100% | > 10 µM
17 | CCOC(=O)N1CC2(CC[C@@H](N3CCN(c4cc(C)cnc4-c4cnccn4)CC3)C2)C1 [Compound A255] | 80 to 100% | > 10 µM |  | 
18 | CCOC(=O)N1CC2(CC[C@@H](N3CCN(c4cc(F)cnc4-c4ccc5c(c4)OCO5)CC3)C2)C1 [Compound A130] |  |  | 80 to 100% | > 10 µM
19 | CCOC(=O)N1CC2(CC[C@@H](N3CCN(c4cccnc4-c4cnccn4)CC3)C2)C1 [Compound A244] | 80 to 100% | > 10 µM |  | 
20 | CCOC(=O)N1CC2(CC[C@@H](N3CCN(c4cc(F)cnc4-c4c(C)noc4C)CC3)C2)C1 [Compound A78] |  |  | 80 to 100% | > 10 µM

Row | Structure (SMILES) | Emax (M4 mAChR; cAMP assay) | EC50 ([1]; FLIPR) | Emax (M4 mAChR; cAMP TR-FRET with forskolin) | EC50 ([1]; FLIPR calcium)
21 | CCOC(=O)N1CC2(CC[C@@H](N3CCN(c4cc(F)cnc4-c4ccn(C(F)F)n4)CC3)C2)C1 [Compound A198] | 50 to 79.9% | > 10 µM |  | 
22 | CCOC(=O)N1CC2(CC[C@@H](N3CCN(c4cc(F)cnc4-c4ccc5nccn5c4)CC3)C2)C1 [Compound A96] |  |  | 80 to 100% | > 10 µM
23 | CCOC(=O)N1CC2(CC[C@@H](N3CCN(c4cc(F)cnc4-c4ccnc(F)c4OC)CC3)C2)C1 [Compound A163] | 80 to 100% | > 10 µM |  | 
24 | CCOC(=O)N1CC2(CC[C@@H](N3CCN(c4cc(F)cnc4-c4cnn5c4OCCC5)CC3)C2)C1 [Compound A173] | 50 to 79.9% | > 10 µM |  | 
25 | CCOC(=O)N1CC2(CC[C@@H](N3CCN(c4cc(F)cnc4-c4ccccn4)CC3)C2)C1 [Compound A227] | 80 to 100% | > 10 µM |  | 
26 | CCOC(=O)N1CC2(CC[C@@H](N3CCN(c4cc(F)cnc4-c4cccc(O)c4)CC3)C2)C1 [Compound A32] |  |  | 80 to 100% | > 10 µM
27 | CCOC(=O)N1CC2(CC[C@@H](N3CCN(c4cc(F)cnc4-c4ccc(OC)c(CO)c4)CC3)C2)C1 [Compound A72] |  |  | 50 to 79.9% | > 10 µM
28 | CCOC(=O)N1CC2(CC[C@@H](N3CCN(c4cc(F)cnc4-c4cnc(OCC)nc4)CC3)C2)C1 [Compound A132] |  |  | 80 to 100% | > 10 µM
29 | CCOC(=O)N1CC2(CC[C@@H](N3CCN(c4cc(F)cnc4-c4cccc5n[nH]cc45)CC3)C2)C1 [Compound A62] |  |  | 80 to 100% | > 10 µM
30 | CCOC(=O)N1CC2(CC[C@@H](N3CCN(c4cc(F)cnc4-c4cncnc4C)CC3)C2)C1 [Compound A181] | 80 to 100% | > 10 µM |  | 
31 | CCOC(=O)N1CC2(CC[C@@H](N3CCN(c4cc(F)cnc4-c4cccc5ncnn45)CC3)C2)C1 [Compound A178] | 19 to 49.9% | > 10 µM |  | 
32 | CCOC(=O)N1CC2(CC[C@@H](N3CCN(c4cc(F)cnc4-c4ccc(O)cc4F)CC3)C2)C1 [Compound A136] |  |  | 80 to 100% | > 10 µM
33 | CCOC(=O)N1CC2(CC[C@@H](N3CCN(c4cc(Cl)cnc4-c4ccc(=O)n(C)c4)CC3)C2)C1 [Compound A207] | 80 to 100% | > 10 µM |  | 
34 | CCOC(=O)N1CC2(CC[C@@H](N3CCN(c4cc(F)cnc4-c4cc(C)c(=O)n(C)c4)CC3)C2)C1 [Compound A202] | 19 to 49.9% | > 10 µM |  | 
35 | CCOC(=O)N1CC2(CC[C@@H](N3CCN(c4cc(F)cnc4-c4ccc(N(C)C)nc4)CC3)C2)C1 [Compound A56] |  |  | 80 to 100% | > 10 µM
36 | CCOC(=O)N1CC2(CC[C@@H](N3CCN(c4cc(F)cnc4-c4ccc(C#N)nc4)CC3)C2)C1 [Compound A29] |  |  | 80 to 100% | > 10 µM
37 | CCOC(=O)N1CC2(CC[C@@H](N3CCN(c4cc(F)cnc4-c4ccc5c[nH]nc5c4)CC3)C2)C1 [Compound A159] | 80 to 100% | > 10 µM |  | 
38 | CCOC(=O)N1CC2(CC[C@@H](N3CCN(c4cc(F)cnc4-n4cc(C)cn4)CC3)C2)C1 [Compound A10, ethyl (6R)-6-[4-[5-fluoro-2-(4-methylpyrazol-1-yl)-3-pyridyl]piperazin-1-yl]-2-azaspiro[3.4]octane-2-carboxylate] |  |  | 80 to 100% | > 10 µM
39 | CCOC(=O)N1CC2(CC[C@@H](N3CCN(c4cc(F)cnc4-c4ccc(=O)n(CC)c4)CC3)C2)C1 [Compound A155] | 80 to 100% | > 10 µM |  | 
40 | CCOC(=O)N1CC2(CC[C@@H](N3CCN(c4cc(F)cnc4-c4cnc(N5CCC5)nc4)CC3)C2)C1 [Compound A124] |  |  | 80 to 100% | > 10 µM

— patent publication US20260098026A1, “M4 ACTIVATORS/MODULATORS AND USES THEREOF” (Cerevel Therapeutics, LLC, priority 2022, published 2026)
